Results published in patent US9175077B2, “Nucleic acids encoding biologically active polypeptides derived from a novel early stage pregnancy factor designated maternin (MA)” (NOBEL BIOSCIENCES LLC, priority 1999, dated 2015).

How the values were obtained:
[1] = test system: HIV-1 transgene expression; test: HIV-1 transgenic rats; type: in vivo
From the text: Because of the extraordinary effects of MA in the mouse modes, we were concerned that the results might be peculiar to the model. Consequently, an HIV-1 transgenic rat model was developed. An additional advantage of the rat model is the larger size of the animals, enabling direct inoculation of MA into the developing pups rather than therapy being indirect (the lactating mother) and limited to the lactation phase. Thus, the transgenic rats can be followed and treated much longer.
Like the transgenic mice, the transgenic rats contain HIV-1 provirus PNNL 4-3, again deleted in gag/pol, and also develop hyperkeratosis. Additionally, they develop tissue fibrosis, inflammatory changes, and some histopathology more similar to human AIDS than in the mouse model, but unlike the HIV-1 transgenic mice the effect is usually not lethal. The changes correlate with expression of HIV-1 proteins. The transgenic rats are more fully described in copending U.S. patent application Ser. No. 09/058,113, by Bryant et al., filed Apr. 9, 1998, entitled “HIV Transgenic Animals and Uses Therefor,” the entire disclosure of which is incorporated herein by reference.
Inoculation (subcutaneous) of a 250-300 gm mother with 300 pmoles of MA for 10 days began after birth of the pups. […]

SIVMAC 251 = SIVMAC 251 infected rhesus macaques; type: in vivo; details: end-stage disease
From the text: Certain strains of SIV produce an AIDS-like illness in susceptible monkeys. Among them SIVMAC 251 induces disease in rhesus monkeys similar to AIDS in humans only with much greater rapidity.^174 Therapy with purified MA of 3 monkeys with end-stage disease infected 13-14 mos earlier was initiated when the animals were losing weight, highly viremic (plasma virus 0.5 to 3×10^6 copies of SIV RNA/ml by NASBA), and developing pancytopenia. […] In contrast, most untreated animals died by this period. Though the limitation of animal number precludes strong conclusions related to survival.
Far more impressive were experiments performed soon after infection (3 weeks). In these experiments, crude urinary preparations containing MA, but not crude fractions lacking MA, were inoculated subcutaneously. Using a 10^4.5 TCID50 of cell free SIVmac 251, the characteristic rise in SIV p27, reduction of CD4+ T-cells, and weight loss, which occurred in the untreated animals, was prevented in MA treated animals. The untreated animals died before 6 mos. […] However, stopping therapy led to rapid onset of virus production and development of AIDS-like disease.

Acutely bled rats = type: in vivo, Sprague-Dawley rats; details: i.p. 24 and 48 hrs after 35-40% blood loss
From the text: To delineate the effects of MA on hematopoiesis in the absence of any external bone marrow suppression, blood (35-40% of total blood volume) was removed from five Sprague-Dawley rats by intracardiac puncture. […] Each panel illustrates the mean values for the three animals treated with MAS1. Thus, MA and related derivatives have potent pro-hematopoietic effects.

[2] = test system: human bone marrow stem cells; test: Engraftment of ex vivo expanded hematopoietic progenitor cells in irradiated rats; design: species or system Sprague Dawley rats; details: Rat S. Dawley irradiated 450 RAD; n = 3
From the text: The inventors also investigated the effect of MA on engraftment of human bone marrow stem cells [CD34^+, CD38″ cells, long term cultures after 4 mos, and stromal free cultures] ex vivo expanded hematopoietic progenitor cells in Rats irradiated [Sprague DAwley, 450 Rad] and immunodeficient mice [SCID or BNX-XID mice].
Measurement of short-term hematopoietic reconstitution kinetics and long term repopulating ability. Just prior to implantation, SCID, BNX-XID-immunodeficient mice and Sprague Dawley rats were exposed to 450 rad total body γ-irradiation. […] But the SCID and BNX-XID immunodeficient mice were repopulated by the cultured, treated human cells.

[3] = test system: carcinoma of the breast HTB124; test: Confocal microscopy apoptosis; type: cell-based, human; details: 200 ng/ml; 24 hrs
Procedure: (§1) More extensive studies of the effects of MA and with truncated synthetic forms of MA (MAS) on a wide range of other human tumor cells were carried out using three-dimensional confocal microscopy. Cells were cultured and then seeded onto gelatinized glass chamber slides and incubated 24 hrs with the various test materials. The slides were then fixed with formalin and treated serially with Triton X-100 (0.01%) for 10 min at 25°, 0.4 ug/ml fluorescein isothiocyanate (FITC)-labeled Phalloidin (Sigma Chem. Co.) at room temperature for 30 min to bind actin, washed with PBS and the DNA stained with Propidium iodide (PI) (0.5 ug·ml) (Sigma Chemical Co.), for 15 min. The stained slides were washed and mounted on slow fade (Molecular Probes, Inc., Eugene, Oreg.) and examined through a dual emission filter XF53 (Omega, Inc., Brattlesboro, Va.) by fluorescent microscopy. In some experiments only DNA staining was performed. In these instances Triton X-100 was not used. The slides were stained with PI and examined for cell morphology and chromatin degradation under 3D confocal microscopy.

melanoma HTB67 = test: Confocal microscopy apoptosis; type: cell-based, human; details: 200 ng/ml; 24 hrs
Procedure: as §1

[4] = test system: carcinoma of the pancreas CRL 1682; test: Confocal microscopy apoptosis; type: cell-based, human; details: 200 ng/ml; 24 hrs
Procedure: as §1

[5] = test system: carcinoma of the kidney HTB46; test: Confocal microscopy apoptosis; type: cell-based, human; details: 200 ng/ml; 24 hrs
Procedure: as §1

[6] = test system: carcinoma of the lung HTB184; test: Confocal microscopy apoptosis; type: cell-based, human; details: 200 ng/ml; 24 hrs
Procedure: as §1

[7] = test system: leukemia and lymphoma cell lines: HUT78, DAVDI, HG, SULTAN, T-cell lymphoma; test: Confocal microscopy apoptosis; type: cell-based, human; details: 200 ng/ml; 24 hrs
Procedure: as §1

KS Y-1 cells = test: Confocal microscopy apoptosis; type: cell-based, human; details: 200 ng/ml; 24 hrs
Procedure: as §1

[8] = test system: prostate carcinoma cell line PC4; test: Confocal microscopy apoptosis; type: cell-based, human; details: 200 ng/ml; 24 hrs
Procedure: as §1

fibrosarcoma 4TB166 = test: Confocal microscopy apoptosis; type: cell-based, human; details: 200 ng/ml; 24 hrs
Procedure: as §1

[9] = test system: prostate carcinoma cell line PC3; test: Confocal microscopy apoptosis; type: cell-based, human; details: 200 ng/ml; 24 hrs
Procedure: as §1

Ewing's sarcoma = test: Confocal microscopy apoptosis; type: cell-based, human; details: 200 ng/ml; 24 hrs
Procedure: as §1

carcinoma of the colon = test: Confocal microscopy apoptosis; type: cell-based, human; details: 200 ng/ml; 24 hrs
Procedure: as §1

gliobastoma HTB16 = test: Confocal microscopy apoptosis; type: cell-based, human; details: 200 ng/ml; 24 hrs
Procedure: as §1

VVCNYRDVRFESIRLPGCPRGVNPVVSYAVALSCQ [MA]
survival and development ([1]; 300 pmoles to mother for 10 days, then direct subcutaneous inoculation): survived, developed normally
transgene expression ([1]; rat, in vivo): markedly reduced
weight and T-cell number (SIVMAC 251): stabilization and in some instances even increase
change in SIV titer (SIVMAC 251; 0.2 mg/kg 3 times weekly, 6 mos): no significant change
deaths in observation period (SIVMAC 251; 6 mos): none of the 3 animals died
recovery of peripheral blood cells (Acutely bled rats): prompt recovery
CD4 [2]: 1%
CD14 [2]: 1%
CD34 [2]: 40%
induction of apoptosis [3]: induced apoptosis
induction of apoptosis (melanoma HTB67): induced apoptosis
induction of apoptosis [4]: induced apoptosis
induction of apoptosis [5]: induced apoptosis
induction of apoptosis [6]: induced apoptosis
induction of apoptosis [7]: induced apoptosis
induction of apoptosis (KS Y-1 cells): induced apoptosis
induction of apoptosis [8]: induced apoptosis
induction of apoptosis (fibrosarcoma 4TB166): induced apoptosis
induction of apoptosis [9]: induced apoptosis
induction of apoptosis (Ewing's sarcoma): induced apoptosis
induction of apoptosis (carcinoma of the colon): induced apoptosis
induction of apoptosis (gliobastoma HTB16): induced apoptosis
